The values below come from PubChem BioAssay AID652028 (The Scripps Research Institute Molecular Screening Center, 2013).

Calls of active or inactive are those of the source.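 How the source made its calls: active means fold change under 0.5 at 10 µM in a cell reporter of NFkB inflammatory signaling; inactive means the rest.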

This test has as its system HEK NFkB luciferase reporter, IL-6 stimulated, luminescence. As to the kind of experiment: blockade of IL-6-induced NFkB reporter activity – HEK cells, luminescence, IL-6 stimulus, powder samples, counter-screen for STAT5 inhibitor project, late-stage follow-up (AID 652028). Conditions: at 10 µM; stronger effect = lower value.

As for `O=C(C[n+]1ccc2ccccc2c1)Nc1ccccc1`, the fold change is 0.947 (inactive).

In the case of `O=C(C[n+]1ccc2ccccc2c1)c1ccc2ccccc2c1`, the fold change is 3.27 (inactive).

`Cc1cc[n+](CC(=O)/C=C2\N(C)c3ccccc3C2(C)C)c(C)c1`: the fold change is 0.848 (inactive).

For the compound `O=C(C[n+]1ccc2ccccc2c1)c1cc2ccccc2oc1=O`, the fold change was 0.218.

For the compound `CN1/C(=C\C(=O)CN2C(=O)C3CC=CCC3C2=O)C(C)(C)c2ccccc21` (stereo unspecified), the fold change is 0.828 (inactive).

With `O=C(C[n+]1ccc2ccccc2c1)c1ccccc1`, the fold change is 0.911 (inactive).

With `CN1/C(=C\C(=O)CN2CCc3ccccc3C2)C(C)(C)c2ccccc21`, the fold change is 0.879 (inactive).

As to `CN1/C(=C\C(=O)Cn2nnc(-c3ccccc3)n2)C(C)(C)c2ccccc21`, the fold change is 0.871 (inactive).

Regarding `CN1/C(=C\C(=O)C[n+]2ccccc2)C(C)(C)c2ccccc21`, the fold change was 0.819 (inactive).

Regarding `CC(C)(C)C(=O)C[n+]1ccc2ccccc2c1`, the fold change was 0.915 (inactive).

As to `CCOC(=O)C1CCCN(CC(=O)/C=C2/N(C)c3ccccc3C2(C)C)C1` (stereo unspecified), the fold change was 0.99 (inactive).
